Experimental data as given in PubChem BioAssay (NCI).
Values joined by “and” are separate entries in the source; they are usually repeats but may differ in a detail not shown here. Equal values may be shown once.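 Compound exposure: 48 hours, 5 concentrations, 96-well plates. GI50 marks 50% less growth. At the TGI there is no net growth.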

What was measured:
Assay in all cases: DTP human tumour cell line panel, 48 h
[1] = test system: A549 NSCLC
[2] = test system: IGROV1 ovarian
[3] = test system: LOX IMVI melanoma
[4] = test system: MCF7 breast
[5] = test system: NCI-H522 lung
[6] = test system: NCI/ADR-RES ovarian
[7] = test system: OVCAR-4 ovarian
[8] = test system: SF-295 CNS
[9] = test system: SR leukemia
[10] = test system: UACC-257 melanoma

SMILES | GI50 [1] [µM] | TGI [1] | GI50 [2] | TGI [2] | TGI [3] | GI50 [4] [µM] | TGI [4] [µM] | GI50 [5] [µM] | TGI [5] | GI50 [6] [µM] | TGI [6] | GI50 [7] [µM] | TGI [7] | GI50 [8] | TGI [8] | GI50 [9] | TGI [9] | GI50 [10] | TGI [10] | GI50 [3]
CCCCCCCCCCCCCOC(=O)c1c(C)[nH]c(/C=C2\N=C(c3ccc[nH]3)C=C2OC)c1C | 0.0419 | 0.505 µM | 0.122 µM | 30.1 µM | 0.0223 µM | 0.0248 | > 100 | 0.215 | > 64.3 µM | 0.116 | > 100 µM | 0.425 | > 100 µM | 1.75 µM | 37.7 µM | < 0.0118 µM | 0.145 µM | 0.588 µM | > 100 µM | –
Nc1nc(N)c2nc(CNc3ccc(C(=O)CC(CCC(=O)O)C(=O)O)cc3)cnc2n1 (centres undefined) | 0.153 | > 100 µM | 0.465 µM | > 100 µM | > 100 µM | 0.0714 | > 100 | 0.47 | > 100 µM | 0.224 | > 100 µM | – | > 100 µM | 0.19 µM | > 100 µM | < 0.019 µM | – | > 25.5 µM | > 100 µM | < 0.0229 µM
O=C(O)C1C2C=CC(O2)C1C(=O)Nc1ccccc1 (centres undefined) | – | > 100 µM | – | > 100 µM | > 100 µM | – | > 100 | – | > 100 µM | – | > 100 µM | – | > 100 µM | – | > 100 µM | – | > 100 µM | – | > 100 µM | –
CC1(C)SC2C(C(=O)O)N=C(Cc3ccccc3)N2C1C(=O)O (centres undefined) | – | > 100 µM | – | > 100 µM | 60.5 µM | – | > 100 | – | > 100 µM | – | > 100 µM | – | > 100 µM | – | > 100 µM | – | > 100 µM | – | 49.2 µM | –
Cc1cc(Cl)ccc1Nc1sc(C(=O)c2cc3cc(Cl)ccc3o2)c(N)c1C#N | – | > 54.7 µM | – | > 100 µM | > 100 µM | – | 59.6 | – | 21.9 µM | – | > 23.5 µM | – | 25.1 µM | – | > 100 µM | – | > 100 µM | – | > 100 µM | –
CN1CCN(C(=O)c2ccc(NC(=O)Nc3ccc(N(C)c4ccnc(Nc5ccc(CS(C)(=O)=O)cc5)n4)cc3)cc2)CC1 | > 23.3 | > 25 µM | > 16.4 µM | > 25 µM | > 25 µM | 7.41 | > 25 | 7.65 | > 25 µM | > 25 | > 25 µM | 8.15 | > 25 µM | > 22.5 µM | > 25 µM | > 12.7 µM | > 25 µM | > 25 µM | > 25 µM | 10 µM
Cc1cc(N(CCOS(C)(=O)=O)CCOS(C)(=O)=O)ccc1C=Nc1ccc(-c2csc(-c3ccccc3)n2)c(Cl)c1 | – | 15.9 µM | – | 32.2 µM | 28.3 µM | – | > 58.9 | – | 3.02 µM | – | 71.5 µM | – | 51.3 µM | – | 29.8 µM | – | 17.9 µM | – | 49.3 µM | –
CS(=O)(=O)CCNCc1ccc(-c2ccc3ncnc(Nc4ccc(OCc5ccccc5)c(C(F)(F)F)c4)c3c2)o1 | 8.23 | > 25 µM | 6.36 µM | > 22.2 µM | 8.33 µM | 4.55 | 9.59 | 5.02 | 9.94 µM | 7.03 | > 25 µM | 10.3 | > 25 µM | 5.1 µM | 10.6 µM | 7.47 µM | 19.9 µM | 4.74 µM | 9.09 µM | 4.27 µM
CCCCCCCCCCCCCCCCC1=CC(=O)C=C(OC)C1=O | – | > 100 µM | – | > 100 µM | > 100 µM | – | > 100 | – | > 100 µM | – | > 100 µM | – | > 100 µM | – | > 100 µM | – | 92.7 µM | – | > 100 µM | –
C=C(C)C(=O)NC(N)=NC#N | – | 307 µM | 168 µM | > 75.1 µM and 309 µM | 96 µM | 109 | 248 | 2.26 | 16.4 µM and 5.88 µM | 125 | > 83.8 µM and 267 µM | 140 | 35.7 µM and 295 µM | 179 µM | 330 µM | – | 87.9 µM and 132 µM | 69.4 µM | > 66.6 µM and 200 µM | 28.6 µM
CC(C)C1C(=O)N2CCCC2C2(O)OC(NC(=O)C3C=C4c5cccc6[nH]cc(c56)CC4N(C)C3)(C(C)C)C(=O)N12 (centres undefined) | – | 67.3 µM | – | 36.5 µM | 34.8 µM | – | > 100 | – | 74.5 µM | – | 57.5 µM | – | 47.9 µM | – | 64.4 µM | – | 68.3 µM | – | 76.2 µM | –
COc1ccc(-c2coc3ncnc(N)c23)cc1 | > 25 | > 25 µM | > 25 µM | > 25 µM | > 25 µM | > 25 | > 25 | > 25 | > 25 µM | > 25 | > 25 µM | > 25 | > 25 µM | > 25 µM | > 25 µM | > 25 µM | > 25 µM | > 25 µM | > 25 µM | > 25 µM
CCC1CCc2nc3sc(C(=O)Nc4ccccc4F)c(N)c3cc2C1 (centres undefined) | > 100 | > 100 µM | > 100 µM | > 100 µM | > 100 µM | 0.318 | > 100 | 24.8 | > 100 µM | 9.5 | > 100 µM | > 100 | > 100 µM | 0.669 µM | > 100 µM | 0.284 µM | 38.1 µM | 0.934 µM | > 100 µM | 7.66 µM
NC1=NC(=O)N2CC12 (centres undefined) | 890 | > 100 µM and 3450 µM | 86.8 µM and 261 µM | > 100 µM and 1100 µM | > 100 µM and 134 µM | 137 | 768 | 116 | > 100 µM and 367 µM | 168 | 660 µM | 198 | > 100 µM and 779 µM | 68.6 µM and 73.1 µM | > 100 µM and 219 µM | 10.8 µM and 14.6 µM | > 100 µM and 34.8 µM and 73.9 µM | 66.6 µM and 85 µM | > 100 µM and 245 µM | 38.2 µM and 61.2 µM
O=c1oc2ccc(Cl)cc2c(=O)n1-c1ccc(Cl)cc1F | 0.998 | > 31.6 µM | 0.237 µM | 20.6 µM | 2.27 µM | 0.593 | 23.8 | 0.331 | 3.22 µM | 0.532 | 3.79 µM | 0.377 | 78.9 µM | 0.856 µM | 2.43 µM | 0.462 µM | – | 0.496 µM | 2.31 µM | 0.424 µM
